Experimental data from PubChem BioAssay AID1963971 (Molecular Pharmacology Branch, DTP, NCI, 2024).

Test system: 953936-095-R-J2-PDC spheroids with HUVEC/MSC, viability
Assay: Anticancer human tumor 953936-095-R-J2-PDC patient-derived cervical squamous cell carcinoma cell line growth inhibition [PI3K]
Conditions: for IC50: curve of first compound; for viability, T/C: stronger effect = lower value; active means viability on the fitted dose curve at most 10% of control; inactive means the rest
From the text: Combinatorial screen of targeted agents with the PI3K inhibitors inavolisib, alpelisib, duvelisib, and copanlisib in multi-cell type tumor spheroids
A high-throughput screen of multi-cell type tumor spheroids was designed to identify active combinations of targeted small molecules and PI3K pathway inhibitors. Complex spheroids include a stromal component modeled by human endothelial cells (HUVEC) and fibroblasts modeled by human mesenchymal stem cells (MSCs). The concentration ranges selected for each drug and investigational agent were based upon clinically achievable concentrations if the clinical Cmax of the agent was known.
Compounds. The drugs and investigational agents: inavolisib (NSC800729), alpelisib (NSC765974), duvelisib (NSC772469), copanlisib (NSC816437), ipatasertib (NSC767898), afuresertib (NSC778305), talazoparib (NSC767125), sapanisertib (NSC764658), selumetinib (NSC741078), tovorafenib (DAY101, NSC766906), vemurafenib (NSC761431), ravoxertinib (NSC781343), sotorasib (NSC818433), MRTX1133 (NSC 836407), abemaciclib (NSC 768073), palbociclib (NSC758247), venetoclax (NSC 766270), SY5609 (NSC837396), enzalutamide (NSC755605), and darolutamide (NSC825331), were obtained from the National Cancer Institute (NCI) Developmental Therapeutics Program Chemical Repository. The FDA-approved anticancer drug set is available from the NCI Developmental Therapeutics Program. […] The stock solutions were prepared in dimethyl sulfoxide (DMSO, Sigma-Aldrich, St. Louis, MO, cat. D2650) at 800-fold the tested concentration and stored at -70 degrees C prior to their use. All drugs and investigational agents were tested over a range starting from a high concentration at or near the clinical Cmax and decreasing in half-log increments. If the clinical Cmax for an agent had not been determined, the highest concentration tested was 10 microM.
Cell Culture. All cells were maintained in an incubator at 37 degrees C and 5% CO2 with 95% humidity. The PDC lines were cultured according to standard operating procedures established by the NCI PDMR (https://pdmr.cancer.gov/sops/default.htm). All PDCs were thawed and cultured in Matrigel-coated flasks prepared with a working solution of 1X Ham's F-12 nutrient mix, without supplementation (Invitrogen, Waltham, MA, cat. 11765054), 100 U/mL penicillin-streptomycin (Invitrogen, cat. 15140122), and 2.5% Matrigel (Corning Inc., Corning, NY, cat. 354248) for the first three passages. The 354836-022-R-J1-PDC, 475296-252-R-J1-PDC, and 997726-040-R-J2-PDC lines were cultured in 6A media, which includes advanced DMEM/F-12 (Thermo Fisher Scientific, cat. 12634028), 10 mM HEPES (Thermo Fisher Scientific, cat. 15630080), 1X GlutaMAX supplement (Thermo Fisher Scientific, cat. 35050061), 0.1 mg/mL primocin (InvivoGen, San Diego, CA, cat. ant-pm-2), 10% defined fetal bovine serum, heat inactivated (HyClone Laboratories Inc., Logan, UT, cat. SH30070.03HI), 50% L-WRN conditioned media (ATCC, cat. CRL-3276), 1.25 mM N-Acetyl-L-cysteine (Sigma-Aldrich, cat. A9165), 10 mM nicotinamide (Sigma-Aldrich, cat. N0636), 1X B-27 supplement (Thermo Fisher Scientific, cat. 17504044), 1X N-2 supplement (Thermo Fisher Scientific, cat. 17502048), and 10 microM Y-27632 dihydrochloride (Tocris Bioscience, Bristol, United Kingdom, cat. 1254). The 624824-186-R-J2-PDC line was cultured in 6C/Colon 1B media, which includes all 6A media components plus 50 ng/mL human EGF recombinant protein (Thermo Fisher Scientific, cat. PHG0311). […]

[1] = second compound 0.00316 µM, first compound 0.0316 µM
[2] = second compound 0.00316 µM, first compound 0.1 µM
[3] = second compound 0.01 µM, first compound 0.0316 µM
[4] = second compound 0.01 µM, first compound 0.1 µM
[5] = second compound 0.0316 µM, first compound 0.0316 µM
[6] = second compound 0.0316 µM, first compound 0.1 µM
[7] = second compound 0.1 µM, first compound 0.0316 µM
[8] = second compound 0.1 µM, first compound 0.1 µM
[9] = second compound 0.316 µM, first compound 0.0316 µM
[10] = second compound 0.316 µM, first compound 0.1 µM
[11] = second compound 1 µM, first compound 0.0316 µM
[12] = second compound 1 µM, first compound 0.1 µM
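Further: spheroids exposed to compounds for seven days before read-out.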

CC(C)n1nc(-c2ccc3oc(N)nc3c2)c2c(N)ncnc21 + CC(Nc1ccc2c(c1)OCCn1cc(N3C(=O)OCC3C(F)F)nc1-2)C(N)=O
0.0275 µM: IC50 (second compound 0.00316 µM)
0.0014 µM: IC50 (second compound 0.1 µM)
0.0231 µM: IC50 (second compound 0.01 µM)
0.0142 µM: IC50 (second compound 0.0316 µM)
active: viability, T/C [8] 7.99% | viability, T/C [10] 6.47% | viability, T/C [12] 5.32%
inactive: viability, T/C (second compound 0.00316 µM, first compound 0.000316 µM) 92.9% | viability, T/C (second compound 0.00316 µM, first compound 0.001 µM) 93.3% | viability, T/C (second compound 0.00316 µM, first compound 0.00316 µM) 81.3% | viability, T/C (second compound 0.00316 µM, first compound 0.01 µM) 73.7% | viability, T/C [1] 46.2% | viability, T/C [2] 15.5% | viability, T/C (second compound 0.01 µM, first compound 0.000316 µM) 87.1% | viability, T/C (second compound 0.01 µM, first compound 0.001 µM) 88.8% | viability, T/C (second compound 0.01 µM, first compound 0.00316 µM) 79.1% | viability, T/C (second compound 0.01 µM, first compound 0.01 µM) 67.6% | viability, T/C [3] 43.6% | viability, T/C [4] 15.2% | viability, T/C (second compound 0.0316 µM, first compound 0.000316 µM) 73% | viability, T/C (second compound 0.0316 µM, first compound 0.001 µM) 71.9% | viability, T/C (second compound 0.0316 µM, first compound 0.00316 µM) 73.4% | viability, T/C (second compound 0.0316 µM, first compound 0.01 µM) 53.5% | viability, T/C [5] 35.7% | viability, T/C [6] 12.1% | viability, T/C (second compound 0.1 µM, first compound 0.000316 µM) 57.7% | viability, T/C (second compound 0.1 µM, first compound 0.001 µM) 52.5% | viability, T/C (second compound 0.1 µM, first compound 0.00316 µM) 44.3% | viability, T/C (second compound 0.1 µM, first compound 0.01 µM) 34% | viability, T/C [7] 21.6% | viability, T/C (second compound 0.316 µM, first compound 0.000316 µM) 34.1% | viability, T/C (second compound 0.316 µM, first compound 0.001 µM) 31.2% | viability, T/C (second compound 0.316 µM, first compound 0.00316 µM) 28.5% | viability, T/C (second compound 0.316 µM, first compound 0.01 µM) 22.7% | viability, T/C [9] 13.1% | viability, T/C (second compound 1 µM, first compound 0.000316 µM) 20.8% | viability, T/C (second compound 1 µM, first compound 0.001 µM) 21.7% | viability, T/C (second compound 1 µM, first compound 0.00316 µM) 18.3% | viability, T/C (second compound 1 µM, first compound 0.01 µM) 16.3% | viability, T/C [11] 9.69%
< 0.000316 µM: IC50 (second compound 0.316 µM) | IC50 (second compound 1 µM)

CCCS(=O)(=O)Nc1ccc(F)c(C(=O)c2c[nH]c3ncc(-c4ccc(Cl)cc4)cc23)c1F + CC(Nc1ccc2c(c1)OCCn1cc(N3C(=O)OCC3C(F)F)nc1-2)C(N)=O
3.26 µM: IC50 (second compound 0.1 µM)
4.76 µM: IC50 (second compound 0.01 µM)
< 0.0316 µM: IC50 (second compound 0.316 µM) | IC50 (second compound 1 µM)
active: viability, T/C (second compound 0.00316 µM, first compound 10 µM) 0.81% | viability, T/C (second compound 0.01 µM, first compound 10 µM) 0.48% | viability, T/C (second compound 0.0316 µM, first compound 10 µM) 3.87% | viability, T/C (second compound 0.1 µM, first compound 10 µM) 0.85% | viability, T/C (second compound 0.316 µM, first compound 10 µM) 0.86%
5.19 µM: IC50 (second compound 0.00316 µM)
inactive: viability, T/C [1] 93.9% | viability, T/C [2] 101% | viability, T/C (second compound 0.00316 µM, first compound 0.316 µM) 104% | viability, T/C (second compound 0.00316 µM, first compound 1 µM) 111% | viability, T/C (second compound 0.00316 µM, first compound 3.16 µM) 87.3% | viability, T/C [3] 91.7% | viability, T/C [4] 94.8% | viability, T/C (second compound 0.01 µM, first compound 0.316 µM) 96.4% | viability, T/C (second compound 0.01 µM, first compound 1 µM) 98.7% | viability, T/C (second compound 0.01 µM, first compound 3.16 µM) 77.1% | viability, T/C [5] 82% | viability, T/C [6] 78.7% | viability, T/C (second compound 0.0316 µM, first compound 0.316 µM) 78.7% | viability, T/C (second compound 0.0316 µM, first compound 1 µM) 81.9% | viability, T/C (second compound 0.0316 µM, first compound 3.16 µM) 75.6% | viability, T/C [7] 56.3% | viability, T/C [8] 58.7% | viability, T/C (second compound 0.1 µM, first compound 0.316 µM) 59% | viability, T/C (second compound 0.1 µM, first compound 1 µM) 56.1% | viability, T/C (second compound 0.1 µM, first compound 3.16 µM) 51.5% | viability, T/C [9] 34% | viability, T/C [10] 34% | viability, T/C (second compound 0.316 µM, first compound 0.316 µM) 35.5% | viability, T/C (second compound 0.316 µM, first compound 1 µM) 35.8% | viability, T/C (second compound 0.316 µM, first compound 3.16 µM) 27.4% | viability, T/C [11] 21.7% | viability, T/C [12] 23.6% | viability, T/C (second compound 1 µM, first compound 0.316 µM) 23.1% | viability, T/C (second compound 1 µM, first compound 1 µM) 26% | viability, T/C (second compound 1 µM, first compound 3.16 µM) 17.9% | viability, T/C (second compound 1 µM, first compound 10 µM) 0.87%
4.77 µM: IC50 (second compound 0.0316 µM)
